Source: US20260206760A1, “AZOLE COMPOUNDS FOR CONTROLLING AND COMBATING INVERTEBRATE PESTS” (FMC CORPORATION, priority 2022, published 2026)

Key:
Format in all cases: in vivo
[1] = test system: cotton melon aphid (Aphis gossypii (Glover)); experiment: whole plant or invertebrate; settings: 144 h, assessed after 6 days; for mortality at 50 ppm: sprayed at 50 ppm
Description: (§1) Test compounds were formulated using a solution containing 10% acetone, 90% water and 300 ppm Activator 90® non-ionic surfactant (Loveland Products, Loveland, Colorado, USA). The formulated compounds were applied in 1 mL of liquid through an atomizer nozzle positioned 1.27 cm (0.5 inches) above the top of each test unit. Test compounds were sprayed at the rates indicated, and each test was replicated three times.
For evaluating control of cotton melon aphid (Aphis gossypii (Glover)) through contact and/or systemic means, the test unit consisted of a small open container with a 5-day-old okra plant inside. This was pre-infested with 30-40 insects on a piece of leaf according to the cut-leaf method, and the soil of the test unit was covered with a layer of sand.
Test compounds were formulated and sprayed at 250 and/or 50 ppm. After spraying, the test units were maintained in a growth chamber for 6 days at 19° C. and 70% relative humidity. Each test unit was then visually assessed for insect mortality.

[2] = test system: corn planthopper (Peregrinus maidis (Ashmead)); experiment: whole plant or invertebrate; settings: 144 h, sprayed at 50 ppm, nymphs, assessed after 6 days
Description: as §1
For evaluating control of corn planthopper (Peregrinus maidis (Ashmead)) through contact and/or systemic means, the test unit consisted of a small open container with a 3-4-day-old corn (maize) plant inside. White sand was added to the top of the soil prior to application of the test compound.
Test compounds were formulated and sprayed at 250 and/or 50 ppm and/or 10 ppm. After spraying of the formulated test compound, the test units were allowed to dry for 1 h before they were post-infested with ~15-20 nymphs (18-to-21-day-old). A black, screened cap was placed on the top of each test unit, and the test units were held for 6 days in a growth chamber at 22-24° C. and 50-70% relative humidity. Each test unit was then visually assessed for insect mortality.

[3] = test system: green peach aphid (Myzus persicae (Sulzer)); experiment: Test B: control of green peach aphid, spray on radish plant, visual mortality; settings: 144 h, assessed after 6 days; for mortality at 50 ppm: sprayed at 50 ppm
Description: as §1
For evaluating control of green peach aphid (Myzus persicae (Sulzer)) through contact and/or systemic means, the test unit consisted of a small open container with a 12-15-day-old radish plant inside. This was pre-infested by placing on a leaf of the test plant 30-40 aphids on a piece of leaf excised from a culture plant (cut-leaf method). The aphids moved onto the test plant as the leaf piece desiccated. After pre-infestation, the soil of the test unit was covered with a layer of sand.
(§2) Test compounds were formulated and sprayed at 250 and/or 50 ppm. After spraying of the formulated test compound, each test unit was allowed to dry for 1 hour and then a black, screened cap was placed on top. The test units were held for 6 days in a growth chamber at 19-21° C. and 50-70% relative humidity. Each test unit was then visually assessed for insect mortality.

[4] = test system: diamondback moth (Plutella xylostella (L.)); settings: sprayed at 250 ppm; neonate larvae; assessed after 6 days; very good to excellent levels of control efficacy
Description: as §1
For evaluating control of diamondback moth (Plutella xylostella (L.)) the test unit consisted of a small open container with a 12-14-day-old mustard plant inside. This was pre-infested with ~50 neonate larvae that were dispensed into the test unit via corn cob grits using an inoculator. The larvae moved onto the test plant after being dispensed into the test unit.
as §2, with “25°” for “19-21°”, “70%” for “50-70%”, “Plant feeding damage” for “Each test unit”, “assessed based on foliage consumed, and larvae were assessed” for “assessed”, “for” for “for insect”

[5] = test system: sweetpotato whitefly (Bemisia tabaci (Gennadius)); experiment: whole plant or invertebrate; settings: 312 h, sprayed at 50 ppm, eggs on cotton leaf, assessed after 13 days
Description: as §1
For evaluating control of the sweetpotato whitefly (Bemisia tabaci (Gennadius)) through contact and/or systemic means, the test unit consisted of a small open container with a 12-14-day-old cotton plant inside. Prior to the spray application, both cotyledons were removed from the plant, leaving one true leaf for the assay. Adult whiteflies were allowed to lay eggs on the plant and then were removed from the test unit. Cotton plants infested with at least 15 eggs were submitted to the test for spraying.
Test compounds were formulated and sprayed at 50 and/or 10 ppm. After spraying, the test units were allowed to dry for 1 hour. The cylinders were then removed, and the units were taken to a growth chamber and held for 13 days at 28° C. and 50-70% relative humidity. Each test unit was then visually assessed for insect mortality.

`FC(F)(F)Oc1ccc(/C=C/c2ccncc2-n2nccn2)cc1` [Compound 1, 3-(1,2,3-triazol-2-yl)-4-[(1E)-2-[4-(trifluoromethoxy)phenyl]ethenyl]pyridine] was tested, and the mortality at 50 ppm [1] was ≥ 80%, the mortality at 50 ppm [2] was ≥ 80% and the mortality at 50 ppm [3] was ≥ 80%.
For `Fc1cncc(-n2ccnn2)c1C1CC1c1ccc(C(F)(F)F)cc1` (stereo not shown) [Compound 3, 3-fluoro-5-(triazol-1-yl)-4-[2-[4-(trifluoromethyl)phenyl]cyclopropyl]pyridine], the “control efficacy (feeding damage and/or mortality)” value [4] was 40% or less feeding damage and/or 100% mortality.
`Fc1cncc(-n2nccn2)c1C1CC1c1ccc(C(F)(F)F)cc1` (stereo not shown) [Compound 4, 3-fluoro-5-(triazol-2-yl)-4-[2-[4-(trifluoromethyl)phenyl]cyclopropyl]pyridine] was tested, and the mortality at 50 ppm [1] was ≥ 80%, the mortality at 250 ppm ([1]; sprayed at 250 ppm) was ≥ 80% and the mortality at 50 ppm [3] was ≥ 80%. The mortality at 250 ppm ([3]; sprayed at 250 ppm) was ≥ 80%, the mortality at 50 ppm [5] was ≥ 70% and the “control efficacy (feeding damage and/or mortality)” value [4] was 40% or less feeding damage and/or 100% mortality.
